Laboratory results published in PMC8175350, “Drug repurposing screens identify chemical entities for the development of COVID-19 interventions” (Nature Communications, 2021).
Values joined by “and” are separate entries in the source; they are usually repeats but may differ in a detail not shown here. Identical values can stand only once. Counter-ions that a name gives are not always drawn. Like-named read-outs stand apart in the source and are kept apart here.

How the values were obtained:
in vitro [1] = details: human, Calu-3 uninfected cytotoxicity CC50 GeoMean
HepG2 [2] = details: human, 72 h
Calu-3 cells [3] = test system: Calu-3 cells
HEK293T [4] = details: human, 72 h
HeLa-ACE2 cells [5] = assay: cells; type: cell-based, human; details: Homo sapiens, HeLa-ACE2; read-out: HeLa-ACE2 TOA cell count EC50 GeoMean
in vitro [6] = details: human
in vitro [7] = details: human; remark: listed apart in the source
SARS-CoV-2 [8] = assay: microbe, parasite or virus in culture; type: cell-based; details: for EC50: read-out: HeLa-ACE2 TOA CoV-2 EC50 GeoMean; for SARS-CoV-2 % infected cells: 10 µM after 1 h infection
SARS-CoV-2 [9] = assay: microbe, parasite or virus in culture; type: cell-based; details: for Emax: Severe acute respiratory syndrome coronavirus 2, HeLa-ACE2, 24 h, read-out: HeLa-ACE2 CoV-2 Sinf Average; for EC50: read-out: HeLa-ACE2 CoV-2 EC50 GeoMean; for HeLa-ACE2 SI: selectivity index, uninfected HeLa-ACE2 CC50 / SARS-CoV-2 EC50
SARS-CoV-2 [10] = assay: microbe, parasite or virus in culture; type: cell-based; details: for EC50: Severe acute respiratory syndrome coronavirus 2, Calu-3, read-out: Calu-3 CoV-2 EC50 GeoMean
[11] = Uninfected HeLa-ACE2 24 h live/dead cytotoxicity counter screen; type: cell-based, human; details: human, uninfected HeLa-ACE2 cells, read-out: HeLa-ACE2 uninfected cytotoxicity CC50 GeoMean
HeLa-ACE2 cells [12] = assay: as above; type: cell-based, human
HeLa-ACE2 cells [13] = assay: cells; details: Homo sapiens
Calu-3 cells [14] = assay: cells; details: Homo sapiens
COVID-19 = details: ref [9]; cited from earlier work
SARS-CoV-2 [15] = type: cell-based; details: combination with remdesivir
[16] = Uninfected Calu-3 48 h Cell-Titer Glo cytotoxicity counter screen; details: human, uninfected Calu-3 cells, Calu-3 uninfected cytotoxicity CC50 GeoMean
Calu-3 cells [17] = assay: as above; details: human, uninfected Calu-3 cells, 48 h
[18] = HepG2 72 h CellTiter-Glo cytotoxicity; details: human, HepG2 cells
HepG2 [19] = assay: HepG2 72 h CellTiter-Glo cytotoxicity; details: 72 h
HeLa-ACE2 cells [20] = assay: Total cell count in the HeLa-ACE2 TOA (time of addition) assay; type: cell-based, human; details: Homo sapiens, HeLa-ACE2; read-out: HeLa-ACE2 TOA cell count EC50 GeoMean
[21] = HEK293T 72 h CellTiter-Glo cytotoxicity; details: human, HEK293T cells
HEK293T [22] = assay: HEK293T 72 h CellTiter-Glo cytotoxicity; details: 72 h
[23] = Severe acute respiratory syndrome coronavirus 2, HeLa-ACE2, detail block
[24] = curve plateau at infinite concentration
[25] = Severe acute respiratory syndrome coronavirus 2, HeLa-ACE2, detail column

Oc1ccc(Nc2ccnc3cc(Cl)ccc23)cc1CN1CCCC1 [Amopyroquine]
CC50 at 48 h (in vitro [1]): 18.7 µM | HepG2 72-hour cytotoxicity Sinf Average (HepG2 [2]): -102% | uninfected Calu-3 CC50 (Calu-3 cells [3]): 18.669 ×÷ 1.171 (n=3) μM | Calu-3 uninfected cytotoxicity Sinf Average (Calu-3 cells [3]; human, 48 h): -96% | HEK293T 72-hour cytotoxicty Sinf Average (HEK293T [4]): -103% | EC50 (HeLa-ACE2 cells [5]): > 9.59 µM | CC50 at 72 h (in vitro [6]): 6.31 µM | CC50 at 72 h (in vitro [7]): 6.39 µM | Emax (SARS-CoV-2 [8]; Severe acute respiratory syndrome coronavirus 2, HeLa-ACE2, 10 h, curve plateau at infinite concentration, read-out: HeLa-ACE2 TOA CoV-2 Sinf Average): 100% | EC50 (SARS-CoV-2 [8]; [23]): > 9.59 µM | TOA:HeLa-ACE2 EC50 Ratio (SARS-CoV-2 [8]; TOA EC50 / HeLa-ACE2 SARS-CoV-2 EC50): 10.603 | Emax (SARS-CoV-2 [9]; [24]): 100% | EC50 (SARS-CoV-2 [9]; [23]): 0.904 µM | HeLa-ACE2 SI (SARS-CoV-2 [9]): 19.02 | Emax (SARS-CoV-2 [10]; Severe acute respiratory syndrome coronavirus 2, Calu-3, 48 h, curve plateau at infinite concentration, read-out: Calu-3 CoV-2 Sinf Average): 100% | EC50 (SARS-CoV-2 [10]; detail block): > 9.98 µM | Calu-3 SI (SARS-CoV-2 [10]; selectivity index, uninfected Calu-3 CC50 / Calu-3 SARS-CoV-2 EC50): 1.87 | CC50 at 24 h ([11]; detail block): 17.2 µM | HeLa-ACE2 uninfected cytotoxicity Sinf Average (HeLa-ACE2 cells [12]; [24]): -100% | EC50 (HeLa-ACE2 cells [13]; HeLa-ACE2, read-out: HeLa-ACE2 cell count EC50 GeoMean, detail block): > 9.59 µM | EC50 (Calu-3 cells [14]; Calu-3, read-out: Calu-3 cell count EC50 GeoMean, detail block): > 9.98 µM

CCN(CCO)CCCC(C)Nc1ccnc2cc(Cl)ccc12 (centres unmarked) [Hydroxychloroquine sulfate]
mortality of hospitalized COVID-19 patients (COVID-19): failed to reduce mortality | HeLa-ACE2 synergy score with remdesivi (SARS-CoV-2 [15]): -1.572 δ | cytotox (Calu-3 cells [3]; human): 13.7874 | TOA:HeLa-ACE2 EC50 Ratio (SARS-CoV-2 [8]): 20.968 | SARS-CoV-2 % infected cells (SARS-CoV-2 [8]; 4:00:00 post infection): 0.3802% and 0.1721% and 0.1129% | SARS-CoV-2 % infected cells (SARS-CoV-2 [8]; 5:00:00): 0.24% and 0.7413% and 0.2751% | SARS-CoV-2 % infected cells (SARS-CoV-2 [8]; 6:00:00): 11.7654% and 10.6398% and 10.3646% | SARS-CoV-2 % infected cells (SARS-CoV-2 [8]; 7:00:00): 25.8166% and 25.8417% and 29.0337% | SARS-CoV-2 % infected cells (SARS-CoV-2 [8]; 8:00:00): 31.116% and 29.6088% and 30.8104% | SARS-CoV-2 % infected cells (SARS-CoV-2 [8]; 10:00:00): 33.0276% and 34.8116% and 35.0891% | SARS-CoV-2 % infected cells (SARS-CoV-2 [8]; 11:00:00): 35.46% and 36.5434% and 36.8817% | SARS-CoV-2 % infected cells (SARS-CoV-2 [8]; 12:00:00): 33.0004% and 35.9224% and 38.4986% | SARS-CoV-2 % infected cells (SARS-CoV-2 [8]; 24:00:00): 45.3401% and 44.0948% and 41.0805% | activity when treatment was initiated at 1 hpi (SARS-CoV-2 [8]; HeLa-ACE2, 10 µM): Loss of activity | EC50 (SARS-CoV-2 [8]; [25]): > 9.61 µM | Emax (SARS-CoV-2 [9]): 100% | EC50 (SARS-CoV-2 [9]; [25]): 0.458 µM | HeLa-ACE2 SI (SARS-CoV-2 [9]): > 40.04 | CC50 at 48 h [16]: > 24.7 µM | Calu-3 uninfected cytotoxicity Sinf Average (Calu-3 cells [17]): -100% | CC50 at 72 h [18]: 3.62 µM | HepG2 72-hour cytotoxicity Sinf Average (HepG2 [19]): -100% | EC50 (SARS-CoV-2 [10]): > 9.99 µM | EC50 (HeLa-ACE2 cells [20]): > 9.61 µM | CC50 at 24 h [11]: > 18.3 µM | HeLa-ACE2 uninfected cytotoxicity Sinf Average (HeLa-ACE2 cells [12]; human, uninfected HeLa-ACE2 cells, 24 h): -99% | Emax (HeLa-ACE2 cells [13]; HeLa-ACE2, 24 h, read-out: HeLa-ACE2 cell count Sinf Average): -47% | EC50 (HeLa-ACE2 cells [13]; HeLa-ACE2, read-out: HeLa-ACE2 cell count EC50 GeoMean): > 5.88 µM | CC50 at 72 h [21]: 10.1 µM | HEK293T 72-hour cytotoxicty Sinf Average (HEK293T [22]): -101% | EC50 (Calu-3 cells [14]; Calu-3, read-out: Calu-3 cell count EC50 GeoMean): > 9.99 µM

interferon
mortality of hospitalized COVID-19 patients (COVID-19): failed to reduce mortality
